Assay results taken from patent publication US5010067A, “Triglyceride-water emulsion pharmaceutical vehicles” (Sandoz Pharmaceuticals Corp., priority 1988, dated 1991).
“Also recorded” adds a separate entry of the source. Counter-ions that a name gives are not always drawn.

Columns and labels:
rat tail [1] = assay: Previous tests: injection of standard water-based mixtures in rats' tails; assay type: in vivo; details: for Test halted because of detergent-like effects around the injection site: standard water-based mixtures, 25 mg/kg and over; for Reduction of detergent-like effects by adjustment of pH, or inclusion of buffers or serum albumin: water-based mixtures
rat tail [2] = assay: Detergent-like effects at tail vein injection site in rats, repeated daily injection for 14 days (compound in Emulsion A); assay type: in vivo; details: for Sloughing of tissue, incidence: mild sloughing in various areas (Compound A) / small dots at injection sites (Compound B); for Ischemia, incidence: by/at 14 days; for Average gain in body weight: over 14 days; for Edema, incidence: tail vein, by/at day 14; for Edema, day of onset: majority of rats; for Edema, day of onset in single late rat: one rat; for Overall damage to the rat tail / negative effects: compared with other compound or other vehicles
Description: A commercial 10% intravenous fat emulsion having 5% safflower oil and 5% soybean oil, USP, i.e. "Liposyn II 10%" described above, hereinafter referred to as Emulsion A, is employed.
The test compound is suspended or dissolved in Emulsion A at a concentration of 28 mg/ml. Probe sonification is employed to make a homogenous drug suspension or solution.
Rats are injected with 0.1 ml/100 g body weight. Control animals are injected with Emulsion A alone at the same volume as drug treated rats.
Each rat is placed in a plastic restraining tube, leaving its tail exposed A warm water soaked gauze pad is placed on the tail for approximately 10 seconds to help dilate the tail vein. A 25 gauge needle attached to a 1 cc tuberculine syringe is used to administer drug/control to the rat. To assure proper administration of doses, a negative pressure is achieved by drawing back slowly on the plunger of the syringe. A flashback of blood into the hub of the needle indicates proper placement of the needle, and drug/control is then administered slowly to the rat. After administration of dose, needle is removed and pressure with a clean gauze pad applied for approximately 10 seconds to keep fluid from flowing out of injection site. The rat is returned to its cage and procedure repeated for each animal.
Body weight and visual observations for detergent-like effects are recorded each day and at the end of the 14 day period; particularly for edema, ischemia and necrosis.
Tests were run to observe detergent-like effects on laboratory rats using as active ingredient either 3-[2-[octadecylaminocarbonyloxymethyl-tetrahydrofuran-2-ylmethoxy)-hydroxy-phosphinyloxy]-ethane]-thiazolium hydroxide inner salt-4-oxide (as Compound A) or cis-1-(2-[hydroxy[[tetrahydro-5-[(octadecylaminocarbonyl)oxy]methyl]furan- 2-yl]methoxyphosphinyloxy]ethyl)-quinolinium hydroxide, inner salt-4-oxide (as Compound B). Each of Compounds A and B was administered to a group of 5 rats.
Each of the two compounds were tested at 28 mg/kg suspended in the 10% intravenous fat emulsion. Rats were injected once a day for 14 consecutive days and monitored for the aforementioned signs of tail morbidity.

[3] = 28 mg/kg once daily in Emulsion A, 14 days
[4] = 28 mg/kg once daily in Emulsion A

| Test halted because of detergent-like effects around the injection site (rat tail [1]) | Reduction of detergent-like effects by adjustment of pH, or inclusion of buffers or serum albumin (rat tail [1]) | Edema, severity (rat tail [2]; [3]) | Edema, day of onset (rat tail [2]; [4]) [days] | Edema, day of onset in single late rat (rat tail [2]; [4]) [days] | Period for which tests could be run (rat tail [2]; in Emulsion A) [days] | SMILES | Ischemia, severity (rat tail [2]; [3]) | Necrosis, incidence (rat tail [2]; [3]) | Necrosis, severity / lesion size (rat tail [2]; [3]) | Slightly larger area of sloughing, incidence (rat tail [2]; [3]) | Sloughing of tissue, incidence (rat tail [2]; [3]) | Ischemia, incidence (rat tail [2]; [4]) | Average gain in body weight (rat tail [2]; [4]) [%] | Edema, incidence (rat tail [2]; [4]) | Overall damage to the rat tail / negative effects (rat tail [2]; in Emulsion A, 14 days) | Animals having necrotic tissue (rat tail [2]; in Emulsion A, 14 days) [%] | Animals with sloughing of necrotic tissue (rat tail [2]; in Emulsion A, 14 days) [%] |
| --- | --- | --- | --- | --- | --- | --- | --- | --- | --- | --- | --- | --- | --- | --- | --- | --- | --- |
| forced to halt after only a few days | had not proven satisfactory | mild edema | ~4 | 10 | 14 | CCCCCCCCCCCCCCCCCCNC(=O)OC[C@H]1CC[C@@H](COP(=O)([O-])OCC[n+]2cccc3ccccc32)O1 (relative stereo) [Compound B, cis-1-(2-[hydroxy[[tetrahydro-5-[(octadecylaminocarbonyl)oxy]methyl]furan-2-yl]methoxyphosphinyloxy]ethyl)-quinolinium hydroxide, inner salt-4-oxide] | small areas of ischemia; also recorded: mild edema and ischemia | 5/5 | small areas of ischemia and necrosis; also recorded: very small areas; also recorded: necrotic lesions being much smaller | 1/5 | 2/5 | 5/5 | 29.6 | 5/5 | least amount of damage to the rat tail; also recorded: visibly better |  |  |
| forced to halt after only a few days | had not proven satisfactory | moderate edema | 2 to 4 | 13 | 14 | CCCCCCCCCCCCCCCCCCNC(=O)OCC1(COP(=O)([O-])OCC[n+]2ccsc2)CCCO1 (stereo not drawn) [Compound A] | moderate edema and ischemia | All rats had mottled necrotic areas |  |  | 3/4 | All rats displayed ischemia of entire tail | 24 | All rats showed some amount of edema | greatly reduced the negative effects | 100 | 75 |
